Values quoted from earlier work in patent US20220288056A1, “PHARMACEUTICAL COMPOSITION CONTAINING NITROXOLINE, NITROXOLINE ORAL SOLID TABLET, PREPARATION METHOD THEREFOR AND USE THEREOF” (Jiangsu Yahong Meditech Co., Ltd., priority 2019, published 2022).

Legend:
[1] = biological target: T1, methionine aminopeptidase MetAP2 (Homo sapiens, UniProt P50579); settings: vascular endothelial cells
T1 construct: host or cells: vascular endothelial cells

[2] = biological target: T2, silence information regulator 2-related enzyme SIRT1 (Homo sapiens, UniProt Q96EB6); settings: vascular endothelial cells
T2 construct: host or cells: vascular endothelial cells
T2 sequence (Q96EB6 1-747): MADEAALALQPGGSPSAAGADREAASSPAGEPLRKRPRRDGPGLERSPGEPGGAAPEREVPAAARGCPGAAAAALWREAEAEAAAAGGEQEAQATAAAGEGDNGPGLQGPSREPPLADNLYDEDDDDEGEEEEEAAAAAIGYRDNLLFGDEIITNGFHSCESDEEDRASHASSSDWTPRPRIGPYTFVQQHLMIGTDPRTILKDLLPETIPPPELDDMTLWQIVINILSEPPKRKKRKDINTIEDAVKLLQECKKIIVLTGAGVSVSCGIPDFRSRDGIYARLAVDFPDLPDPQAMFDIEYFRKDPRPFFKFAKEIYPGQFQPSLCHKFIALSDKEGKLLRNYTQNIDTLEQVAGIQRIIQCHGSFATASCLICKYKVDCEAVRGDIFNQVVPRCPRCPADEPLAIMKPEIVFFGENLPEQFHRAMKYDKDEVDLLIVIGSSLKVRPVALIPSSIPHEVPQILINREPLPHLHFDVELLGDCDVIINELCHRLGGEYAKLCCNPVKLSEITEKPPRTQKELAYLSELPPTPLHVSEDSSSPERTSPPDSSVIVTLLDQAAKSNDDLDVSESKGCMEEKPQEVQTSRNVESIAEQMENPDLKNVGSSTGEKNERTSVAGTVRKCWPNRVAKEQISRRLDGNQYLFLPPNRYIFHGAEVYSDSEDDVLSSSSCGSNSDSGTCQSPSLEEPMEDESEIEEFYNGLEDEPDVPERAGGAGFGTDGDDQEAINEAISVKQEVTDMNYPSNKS

T1 sequence (P50579 whole entry): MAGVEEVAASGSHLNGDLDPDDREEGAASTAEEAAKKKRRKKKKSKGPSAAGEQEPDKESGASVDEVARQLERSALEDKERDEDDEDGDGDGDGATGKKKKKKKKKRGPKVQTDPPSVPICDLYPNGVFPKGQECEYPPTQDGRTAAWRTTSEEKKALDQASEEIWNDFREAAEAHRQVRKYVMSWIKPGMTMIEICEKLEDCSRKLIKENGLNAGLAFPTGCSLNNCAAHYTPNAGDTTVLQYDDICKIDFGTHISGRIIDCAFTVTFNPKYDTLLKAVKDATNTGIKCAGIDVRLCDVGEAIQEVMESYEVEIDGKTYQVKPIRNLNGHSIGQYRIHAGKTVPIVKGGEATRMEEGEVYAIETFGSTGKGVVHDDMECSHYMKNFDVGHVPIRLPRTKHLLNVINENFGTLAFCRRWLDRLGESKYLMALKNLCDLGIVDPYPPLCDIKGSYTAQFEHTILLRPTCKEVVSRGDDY

In the case of `O=[N+]([O-])c1ccc(O)c2ncccc12` [Nitroxoline, 5-nitro-8-hydroxyquinoline], the “inhibition of MetAP2” value [1] is given as “inhibit” and the “inhibition of SIRT1” value [2] is given as “inhibit”.
